Data on two molecules can be found in BindingDB's records for patent US20240109865 (Tyra Biosciences, 2024).

Assay in all cases: Kinase Assay
Test [1] concerns the target Fibroblast growth factor receptor 2 (Homo sapiens, UniProt P21802). As for the experimental part: (§1) Kinase-tagged T7 phage strains were prepared in an E. coli host derived from the BL21 strain. E. coli were grown to log-phase and infected with T7 phage and incubated with shaking at 32° C. until lysis. The lysates were centrifuged and filtered to remove cell debris. […] The liganded beads were blocked with excess biotin and washed with blocking buffer SeaBlock (Pierce), […], 1 mM DTT to remove unbound ligand and to reduce non-specific binding. […] Kds were determined using an 11-point 3-fold compound dilution series with three DMSO control points. […] The compounds were then diluted directly into the assays such that the final concentration of DMSO was 0.9%. All reactions performed in polypropylene 384-well plate. Each was a final volume of 0.02 ml.

For test [2], the target named is Fibroblast growth factor receptor 1 (Homo sapiens, UniProt P11362). As for the experimental part:
as §1

Test [3] concerns the target Fibroblast growth factor receptor 4 (Homo sapiens, UniProt P22455). The procedure: as §1

Fibroblast growth factor receptor 2, sequence (P21802 whole entry): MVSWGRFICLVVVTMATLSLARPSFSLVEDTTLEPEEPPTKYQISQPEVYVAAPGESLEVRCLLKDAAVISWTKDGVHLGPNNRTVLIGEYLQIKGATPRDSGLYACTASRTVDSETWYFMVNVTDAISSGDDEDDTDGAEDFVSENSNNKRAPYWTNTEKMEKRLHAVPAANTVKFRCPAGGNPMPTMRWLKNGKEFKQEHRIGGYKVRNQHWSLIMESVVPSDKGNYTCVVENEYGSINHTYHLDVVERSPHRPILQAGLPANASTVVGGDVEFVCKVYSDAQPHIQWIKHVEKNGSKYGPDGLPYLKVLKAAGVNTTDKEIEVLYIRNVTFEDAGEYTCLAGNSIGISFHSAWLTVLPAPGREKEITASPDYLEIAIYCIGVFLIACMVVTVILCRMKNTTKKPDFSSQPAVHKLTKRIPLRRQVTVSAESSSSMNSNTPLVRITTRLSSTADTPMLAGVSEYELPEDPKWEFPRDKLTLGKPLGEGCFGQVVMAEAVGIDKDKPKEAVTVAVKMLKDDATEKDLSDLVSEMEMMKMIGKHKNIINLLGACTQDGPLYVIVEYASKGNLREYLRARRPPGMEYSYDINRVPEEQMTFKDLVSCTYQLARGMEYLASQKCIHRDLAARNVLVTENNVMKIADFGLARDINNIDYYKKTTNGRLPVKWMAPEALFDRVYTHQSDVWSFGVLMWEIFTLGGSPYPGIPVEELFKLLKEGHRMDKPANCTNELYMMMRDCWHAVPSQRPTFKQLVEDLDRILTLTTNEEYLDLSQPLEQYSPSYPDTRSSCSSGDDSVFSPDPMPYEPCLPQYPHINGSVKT
Fibroblast growth factor receptor 4, sequence (P22455 whole entry): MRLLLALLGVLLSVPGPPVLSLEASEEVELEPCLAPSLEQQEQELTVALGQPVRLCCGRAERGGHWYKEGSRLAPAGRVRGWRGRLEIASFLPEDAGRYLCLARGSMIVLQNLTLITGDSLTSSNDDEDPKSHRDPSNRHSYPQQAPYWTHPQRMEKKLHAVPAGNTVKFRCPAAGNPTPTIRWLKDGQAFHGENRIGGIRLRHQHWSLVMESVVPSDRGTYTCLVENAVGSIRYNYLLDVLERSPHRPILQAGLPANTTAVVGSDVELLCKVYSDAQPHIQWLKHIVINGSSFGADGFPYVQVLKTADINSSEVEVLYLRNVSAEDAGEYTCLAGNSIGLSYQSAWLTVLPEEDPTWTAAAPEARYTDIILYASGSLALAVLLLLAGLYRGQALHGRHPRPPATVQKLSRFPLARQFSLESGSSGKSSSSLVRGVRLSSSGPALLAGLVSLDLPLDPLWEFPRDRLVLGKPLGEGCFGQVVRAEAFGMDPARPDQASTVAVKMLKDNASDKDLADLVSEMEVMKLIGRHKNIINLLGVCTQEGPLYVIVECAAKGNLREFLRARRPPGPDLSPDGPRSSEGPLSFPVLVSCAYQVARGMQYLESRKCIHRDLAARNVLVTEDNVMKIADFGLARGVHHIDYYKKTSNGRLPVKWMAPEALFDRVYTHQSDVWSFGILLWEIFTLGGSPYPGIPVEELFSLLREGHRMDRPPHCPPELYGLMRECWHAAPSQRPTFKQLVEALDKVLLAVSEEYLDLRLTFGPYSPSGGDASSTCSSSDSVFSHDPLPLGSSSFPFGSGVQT
Fibroblast growth factor receptor 1, sequence (P11362 whole entry): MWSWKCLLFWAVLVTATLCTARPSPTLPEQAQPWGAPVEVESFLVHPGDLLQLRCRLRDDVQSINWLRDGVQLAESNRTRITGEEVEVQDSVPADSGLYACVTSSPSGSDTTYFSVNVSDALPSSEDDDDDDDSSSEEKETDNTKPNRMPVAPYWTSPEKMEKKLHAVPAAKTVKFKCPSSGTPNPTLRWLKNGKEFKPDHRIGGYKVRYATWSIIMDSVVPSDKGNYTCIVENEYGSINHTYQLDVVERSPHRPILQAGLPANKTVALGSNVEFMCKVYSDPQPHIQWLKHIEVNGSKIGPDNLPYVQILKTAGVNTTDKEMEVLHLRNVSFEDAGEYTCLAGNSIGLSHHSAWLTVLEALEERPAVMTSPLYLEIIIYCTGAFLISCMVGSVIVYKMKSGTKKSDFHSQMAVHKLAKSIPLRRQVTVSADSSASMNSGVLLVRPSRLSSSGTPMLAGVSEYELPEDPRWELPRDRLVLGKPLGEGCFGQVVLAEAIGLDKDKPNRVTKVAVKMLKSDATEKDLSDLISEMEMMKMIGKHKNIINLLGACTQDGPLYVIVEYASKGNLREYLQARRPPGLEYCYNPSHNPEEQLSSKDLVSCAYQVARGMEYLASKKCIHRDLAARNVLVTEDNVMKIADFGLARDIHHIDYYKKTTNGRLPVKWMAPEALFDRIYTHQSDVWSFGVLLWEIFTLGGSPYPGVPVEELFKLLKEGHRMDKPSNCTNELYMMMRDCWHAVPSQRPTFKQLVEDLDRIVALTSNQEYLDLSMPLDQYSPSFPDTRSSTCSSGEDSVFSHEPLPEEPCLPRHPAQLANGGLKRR

The molecule `Cc1cnnc(C)c1[C@@H](C)Oc1ccc2[nH]nc(-c3cnc(N4CCCC4)c(C#N)c3)c2c1` [US20240109865, Example 173.] yielded a dissociation constant Kd in test [1] of over 300 nM.
As to `C[C@@H](Oc1ccc2[nH]nc(-c3ccc(N4CC5(CCOC5)C4)nc3)c2c1)c1c(Cl)cnnc1Cl` [US20240109865, Example 223.], the dissociation constant Kd in test [2] and in test [3] was over 300 nM throughout.
